Here are results for one molecule from article PMC8197230, “Orientated Immobilization of FAD-Dependent Glucose Dehydrogenase on Electrode by Carbohydrate-Binding Module Fusion for Efficient Glucose Assay” (International Journal of Molecular Sciences, 2021).

In one assay the test system is T1, GDH-NL-CBM2.
T1 construct: gene FAD-GDH; secreted from Pichia pastoris GS115, Ni-purified
Nature of the assay: PMS/DCIP spectrophotometric assay at […] nm, Michaelis-Menten non-linear fit. It is filed as biochemical, Aspergillus niger. The note with it: 0.1 M phosphate buffer pH 6.0, 37 °C; PMS and DCIP as electron acceptors; free enzyme.

For the next assay, the system named is T2, GDH (wild-type FAD-GDH).
T2 construct: signal peptide (first 63 bp, 21 residues) removed; C-terminal His tag kept; secreted from Pichia pastoris GS115 (pPIC9k), glycosylated; Ni-purified
The description is as above. The note with it: 0.1 M phosphate buffer pH 6.0, 37 °C; PMS and DCIP as electron acceptors; free enzyme. It is filed as biochemical, Aspergillus niger.

As for `OC[C@H]1OC(O)[C@H](O)[C@@H](O)[C@@H]1O` (some centres unmarked) [glucose], the Km in the assay on GDH-NL-CBM2 turned out to be 11.8 mM; with GDH (wild-type FAD-GDH) it was 12.3 mM.
